Experimental data published in patent US20240207157A1, “ORAL CARE AGENT” (priority 2021, published 2024).

Tests used:
[1] = humans, after drinking four cups of coffee; cited from earlier work
VEGF [2] = experiment: ELISA, VEGF protein synthesis/secretion into the culture medium of HaCaT cells; format: cell-based, human; conditions: 48 hours
Procedure: (§1) For Q-PCR: Determination of VEGF, HGF and EGF mRNA expression in cell lysates • 2. For ELISA: Determination of VEGF, HGF and EGF protein synthesis/secretion into the culture medium
(§2) The initial cell count was • 1. for Q-PCR: 140,000 cells/well in 1500 μl culture medium • 2. for ELISA: 140,000 cells/well in 1.500 μl culture medium.
(§3) The trial duration for • 1. Q-PCR was 24 hours (single treatment at time 0 h) • 2. ELISA was 48 hours (double treatment at time 0 h and 24 h without changing the medium).
(§4) The study was carried out • 1. for Q-PCR by determining VEGF mRNA expression in cell lysates • 2. for ELISA by determining VEGF protein synthesis/secretion in the culture medium.

[3] = tested on: human epidermal HaCaT keratinocytes; experiment: fluorometric CyQUANT cell proliferation study (DNA content); format: cell-based; conditions: 0.00005, 0.0005, 0.005% caffeine; 24, 48 or 72 hours; best effects after 72 hours
Procedure: To investigate the effect of caffeine on cell proliferation of human epidermal HaCaT keratinocytes, human HaCaT keratinocytes were subjected to a CyQUANT viability assay, wherein the following series of experiments were performed: • 1. P22 Experiment 1 (biological assay 1) • 2. P24 Experiment 2 (biological assay 2).
The trial durations were 24, 48 or 72 hours.
The study was carried out by fluorometric CyQUANT study, wherein the DNA content was measured, reflecting cell proliferation.

[4] = tested on: human epidermal HaCaT keratinocytes; experiment: colorimetric MTT viability study on HaCaT keratinocytes
Procedure: To investigate the effect of caffeine on the biological functions of human epidermal HaCaT keratinocytes, cell experiments were performed on human epidermal HaCaT keratinocytes, wherein the following studies were carried out: • 1.
The initial cell count was 5000 cells/well in 100 μl culture medium.
The culture medium was HaCaT medium (DMEM with the addition of 10% FBS, 1% penicillin-streptomycin, 0.5% fungizone).
The treatment groups were as follows: • 1. Control group (CTRL) • 2. 0.00005% caffeine • 3. 0.0001% caffeine • 4. 0.0005% caffeine • 5. 0.001% caffeine • 6. 0.005% caffeine
The trial durations were 24, 48 and 72 hours.
The study took the form of a colorimetric MTT study.

TGFβ2 = experiment: Q-PCR, TGFβ2 mRNA expression in HaCaT cells; format: cell-based, human
TGFβ1 = experiment: Q-PCR, TGFβ1 mRNA expression in HaCaT cells; format: cell-based, human
GM-CSF [5] = experiment: Q-PCR, GM-CSF experiments in HaCaT cells; format: cell-based, human; conditions: all tested caffeine concentrations, 24 h, Experiments 1 and 2
Procedure: as §1, §2, §3

VEGF [6] = experiment: Q-PCR, VEGF mRNA expression in HaCaT cell lysates; format: cell-based, human
Procedure: as §1, §2, §3, §4

GM-CSF [7] = experiment: ELISA, GM-CSF experiments in HaCaT cells; format: cell-based, human; conditions: 48 h
Procedure: as §1, §2, §3

[8] = 0.0005% caffeine, both experiments

Cn1c(=O)c2c(ncn2C)n(C)c1=O [caffeine]
caffeine concentration in the blood serum [1]: 20 to 50 µmol/L | total amount corresponding to the serum concentration [1]: 15-35 milligrams | VEGF protein production/secretion compared to the control group (VEGF [2]; [8]): increases VEGF protein production/secretion | VEGF protein production/secretion compared to the control group (VEGF [2]; 0.005% caffeine, Experiment 2): also showed an effect | cell proliferation [3]: appears to promote cell proliferation | cytotoxicity ([4]; 0.00005-0.005% caffeine, up to 72 hours): none of the concentrations tested showed cytotoxicity | number of viable cells ([4]; certain concentrations of caffeine, MTT): increased the number of viable cells | mRNA expression of TGFβ2 (TGFβ2; certain caffeine concentrations, 24 h, Experiment 2): apparently increase mRNA expression of TGFβ2 | synthesis/production/secretion of TGFβ2 (TGFβ2; taken together, contradictory results in the two Q-PCR experiments): most likely does not alter | mRNA expression of TGFβ1 (TGFβ1; all tested caffeine concentrations, 24 h, Experiments 1 and 2): None of the tested caffeine concentrations changed the mRNA expression of TGFβ1 | synthesis/production/secretion of TGFβ1 (TGFβ1; taken together, Q-PCR and ELISA): does not alter | mRNA expression of VEGF compared to the control group (experiments regarding GM-CSF) (GM-CSF [5]): apparently increased the mRNA expression of VEGF | mRNA expression of VEGF compared to the control group (VEGF [6]; all caffeine concentrations, 24 hours treatment, Experiments 1 and 2): appear to increase mRNA expression of VEGF | synthesis and production/secretion of VEGF (VEGF [6]; certain concentrations of caffeine, Q-PCR and ELISA taken together): increase the synthesis and production/secretion of VEGF | VEGF protein production/secretion compared to the control group (experiments regarding GM-CSF) (GM-CSF [7]; 0j.005% caffeine, Experiment 2): also showed an effect | VEGF protein production/secretion compared to the control group (experiments regarding GM-CSF) (GM-CSF [7]; [8]): increased VEGF protein production/secretion
